Data set [1] deals with DENV-2 16681 strain labeled with enhanced green fluorescent protein. Briefly: DENV-2 antiviral assay (eGFP fluorescence read-out in Vero cells). It counts as cell-based, Dengue virus. As to conditions: DENV-2 16681 eGFP, MOI 0.5, 3 days. On the procedure:
The antiviral activity of all the compounds of the invention was tested against the DENV-2 16681 strain which was labeled with enhanced green fluorescent protein (eGPF). The culture medium consists of minimal essential medium supplemented with 2% of heat-inactivated fetal calf serum, 0.04% gentamycin (50 mg/mL) and 2 mM of L-glutamine. Vero cells, obtained from ECACC, were suspended in culture medium and 25 μL was added to 384-well plates (2500 cells/well), which already contain the antiviral compounds. Typically, these plates contain a 5-fold serial dilution of 9 dilution steps of the test compound at 200 times the final concentration in 100% DMSO (200 nL). […] Finally, each plate contains wells which are assigned as virus controls (containing cells and virus in the absence of compound), cell controls (containing cells in the absence of virus and compound) and medium controls (containing medium in the absence of cells, virus and compounds). To the wells assigned as medium control, 25 μL of culture medium was added instead of Vero cells. Once the cells were added to the plates, the plates were incubated for 30 minutes at room temperature to allow the cells to distribute evenly within the wells. Next, the plates were incubated in a fully humidified incubator (37° C., 5% CO2) until the next day. Then, DENV-2 strain 16681, labeled with eGFP, was added at a multiplicity of infection (MOI) of 0.5. Therefore, 15 μL of virus suspension was added to all the wells containing test compound and to the wells assigned as virus control. In parallel, 15 μL of culture medium was added to the medium and cell controls. Next, the plates were incubated for 3 days in a fully humidified incubator (37° C., 5% CO2). At the day of the read out, the eGFP fluorescence was measured using an automated fluorescence microscope at 488 nm (blue laser). Using an in-house LIMS system, inhibition dose response curves for each compound were calculated and the half maximal effective concentration (EC50) was determined. Therefore, the percent inhibition (I) for every test concentration is calculated using the following formula: I=100*([…])/(SVC−SCC); ST, SCC and SVC are the amount of eGFP signal in the test compound, cell control and virus control wells, respectively. The EC50 represents the concentration of a compound at which the virus replication is inhibited with 50%, as measured by a 50% reduction of the eGFP fluorescent intensity compared to the virus control. The EC50 is calculated using linear interpolation (Table 1).

The nature of data set [2]: in vitro. It counts as cell-based. Conditions: African green monkey, CC50. On the procedure:
(§1) In parallel, the toxicity of the compounds was assessed on the same plates. Once the read-out for the eGFP signal was done, 40 μL of ATPlite, a cell viability stain, was added to all wells of the 384-well plates. ATP is present in all metabolically active cells and the concentration declines very rapidly when the cells undergo necrosis or apoptosis. The ATPLite assay system is based on the production of light caused by the reaction of ATP with added luciferase and D-luciferin. The plates were incubated for 10 minutes at room temperature. Next, the plates were measured on a ViewLux. The half maximal cytotoxic concentration (CC50) was also determined, defined as the concentration required to reduce the luminescent signal by 50% compared to that of the cell control wells. Finally, the selectivity index (SI) was determined for the compounds, which was calculated as followed: SI=CC50/EC50.

In another data set the test system is DENV-1 strain TC974#666. Kind of data set: Tetravalent RT-qPCR assay Protocol A, serotype 1. It is filed as cell-based. Conditions: Dengue virus, DENV1, 72 h; RT-qPCR serotype 1 TC974#666, Vero cells, day 3. On the procedure:
(§2) The antiviral activity of the compounds of the invention was tested against DENV-1 strain TC974#666 (NCPV), DENV-2 strain 16681, DENV-3 strain H87 (NCPV) and DENV-4 strains H241 (NCPV) and EDEN (SG/06K2270DK1/2005; GenBank accession number QG398256) in a RT-qPCR assay. Therefore, Vero cells were infected with either DENV-1, or -2, or -3, or -4 in the presence or absence of test compounds. At day 3 post-infection, the cells were lysed and cell lysates were used to prepare cDNA of both a viral target (the 3′UTR of DENV; Table 2) and a cellular reference gene (β-actin, Table 2). Subsequently, a duplex real time PCR was performed on a Lightcycler480 instrument. The generated Cp value is inversely proportional to the amount of RNA expression of these targets. Inhibition of DENV replication by a test compound results in a shift of Cp's for the 3′UTR gene. On the other hand, if a test compound is toxic to the cells, a similar effect on β-actin expression will be observed. The comparative ΔΔCp method is used to calculate EC50, which is based on the relative gene expression of the target gene (3′UTR) normalized with the cellular housekeeping gene (β-actin). In addition, CC50 values are determined based on the Cp values acquired for the housekeeping gene β-actin.
(§3) The culture medium consisted of minimal essential medium supplemented with 2% of heat-inactivated fetal calf serum, 0.04% gentamycin (50 mg/mL) and 2 mM of L-glutamine. Vero cells, obtained from ECACC, were suspended in culture medium and 75 μL/well was added in 96-well plates (10000 cells/well), which already contain the antiviral compounds. […] In addition, each plate contains wells which are assigned as virus controls (containing cells and virus in the absence of compound) and cell controls (containing cells in the absence of virus and compound). Once the cells were added in the plates, the plates were incubated in a fully humidified incubator (37° C., 5% CO2) until the next day. Dengue viruses serotype-1, 2, 3 and 4 were diluted in order to obtain a Cp of ˜22-24 in the assay. Therefore, 25 μL of virus suspension, was added to all the wells containing test compound and to the wells assigned as virus control. In parallel, 25 μL of culture medium was added to the cell controls. Next, the plates were incubated for 3 days in a fully humidified incubator (37° C., 5% CO2). After 3 days, the supernatant was removed from the wells and the cells were washed twice with ice-cold PBS (˜100 μL). The cell pellets within the 96-well plates were stored at −80° C. for at least 1 day. Next, RNA was extracted using the Cells-to-CT™ lysis kit, according to the manufacturer's guideline (Life Technologies). The cell lysates can be stored at −80° C. or immediately used in the reverse transcription step.
(§4) In preparation of the reverse transcription step, mix A (table 3A) was prepared and 7.57 μL/well was dispensed in a 96-well plate. After addition of 5 μL of the cell lysates, a five minute denaturation step at 75° C. was performed (table 3B). Afterwards, 7.43 μL of mix B was added (table 3C) and the reverse transcription step was initiated (table 3D) to generate cDNA.
(§5) Finally, a RT-qPCR mix was prepared, mix C (table 4A), and 22.02 μL/well was dispensed in 96-well LightCycler qPCR plates to which 3 μL of cDNA was added and the qPCR was performed according to the conditions in table 4B on a LightCycler 480.
(§6) Using the LightCycler software and an in-house LIMS system, dose response curves for each compound were calculated and the half maximal effective concentration (EC50) and the half maximal cytotoxic concentration (CC50) were determined (Tables 5-8).

The next data set has as its system DENV-2 strain 16681. Briefly: Tetravalent RT-qPCR assay Protocol A, serotype 2. Conditions: Dengue virus, DENV2, 72 h; RT-qPCR serotype 2 16681, Vero cells, day 3. It counts as cell-based. Here is the method: as §2, §3, §4, §5, §6
In the next data set the test system is DENV-3 strain H87. Briefly: Tetravalent RT-qPCR assay Protocol A, serotype 3. It is filed as cell-based. As to conditions: Dengue virus, DENV3, 72 h; RT-qPCR serotype 3 H87, Vero cells, day 3. Here is the method:
as §2, §3, §4, §5, §6

For the next data set, the system named is DENV-4 strain H241. Briefly: Tetravalent RT-qPCR assay Protocol A, serotype 4 H241. As to conditions: Dengue virus, DENV4, Vero, 72 h. It counts as cell-based. On the procedure: as §2, §3, §4, §5, §6
Data set [3] can be described thus: in vitro. It is filed as cell-based. As to conditions: African green monkey. On the procedure: as §2, §3, §6
The subject of a further data set is Vero cells. Briefly: in vitro. It counts as cell-based. Conditions: African green monkey. On the procedure:
as §1

With `COc1cc(NC(C(=O)c2c[nH]c3cc(Cl)ccc23)c2ccc(Cl)cc2OCCO)cc(S(C)(=O)=O)c1` (racemic) [Compound 2, 1-(6-chloro-1H-indol-3-yl)-2-(4-chloro-2-(2-hydroxyethoxy)phenyl)-2-((3-methoxy-5-(methylsulfonyl)phenyl)amino)ethanone], the melting point was found to be 121 °C. Also, the EC50 in data set [1] (Dengue virus, DENV2, Vero, 72 h) came out at 0.27 nM. Moreover, the CC50 in the data set “in vitro [2]” amounted to 4200 nM.
Consider `COc1cc(NC(C(=O)c2c[nH]c3c(C)cc(OC(F)(F)F)cc23)c2ccc(Cl)cc2OCCO)cc(S(C)(=O)=O)c1` (single isomer, unassigned) [Compound 12B, 2-(4-chloro-2-(2-hydroxyethoxy)phenyl)-2-((3-methoxy-5-(methylsulfonyl)phenyl)amino)-1-(7-methyl-5-(trifluoromethoxy)-1H-indol-3-yl)ethanone], for which the EC50 stood at 0.034 nM in data set [1]; 0.086 nM in the data set on DENV-1 strain TC974#666; 0.053 nM in the data set on DENV-2 strain 16681; 1.1 nM in the data set with DENV-3 strain H87; 5.5 nM in the data set on DENV-4 strain H241. In “in vitro [3]”, this molecule came in with a CC50 at 3 days of more than 2300 nM.
Take `COc1cc(NC(C(=O)c2c[nH]c3ccc(OC(F)(F)F)cc23)c2ccc(Cl)cc2OCCO)cc(S(C)(=O)=O)c1` (single isomer, unassigned) [Compound 10B, 2-(4-chloro-2-(2-hydroxyethoxy)phenyl)-2-((3-methoxy-5-(methylsulfonyl)phenyl)amino)-1-(5-(trifluoromethoxy)-1H-indol-3-yl)ethanone]: the EC50 worked out at 0.067 nM in [1]; 0.071 nM in the data set with DENV-1 strain TC974#666; 0.049 nM in the data set with DENV-2 strain 16681; 1.4 nM in the data set with DENV-3 strain H87; 6.9 nM in the data set on DENV-4 strain H241. The molecule further yielded a CC50 in the data set on Vero cells of 2400 nM. Besides, in the data set “in vitro [3]”, the CC50 at 3 days is more than 2400 nM.
For the molecule `COc1cc(NC(C(=O)c2c[nH]c3cc(F)c(C)cc23)c2ccc(Cl)cc2OCCO)cc(S(C)(=O)=O)c1` (single isomer, unassigned) [Compound 8A, 2-(4-chloro-2-(2-hydroxyethoxy)phenyl)-1-(6-fluoro-5-methyl-1H-indol-3-yl)-2-((3-methoxy-5-(methylsulfonyl)phenyl)amino)ethanone], the EC50 in [1] came out at 0.11 nM; with DENV-1 strain TC974#666, 0.39 nM; in the data set on DENV-2 strain 16681, 0.27 nM; with DENV-3 strain H87 it was 4.2 nM; in the data set with DENV-4 strain H241, 36 nM. Also, in “in vitro [2]”, the CC50 is more than 2500 nM.
As to `COc1cc(NC(C(=O)c2c[nH]c3cc(F)ccc23)c2ccc(Cl)cc2OCCO)cc(S(C)(=O)=O)c1` (single isomer, unassigned) [Compound 1A, 2-(4-chloro-2-(2-hydroxyethoxy)phenyl)-1-(6-fluoro-1H-indol-3-yl)-2-((3-methoxy-5-(methylsulfonyl)phenyl)amino)ethanone], the EC50 in [1] was 0.24 nM; in the data set with DENV-1 strain TC974#666 it was 1.3 nM; in the data set with DENV-2 strain 16681, 0.24 nM; with DENV-3 strain H87, 9.6 nM; with DENV-4 strain H241, 71 nM. Besides, the CC50 in the data set with Vero cells is 3700 nM. For the same molecule, the CC50 at 3 days in “in vitro [3]” was more than 2500 nM.
As to `COc1cc(NC(C(=O)c2c[nH]c3cc(OC)c(OC(F)(F)F)cc23)c2ccc(Cl)cc2OCCO)cc(S(C)(=O)=O)c1` (single isomer, unassigned) [Compound 11B, 2-(4-chloro-2-(2-hydroxyethoxy)phenyl)-2-((3-methoxy-5-(methylsulfonyl)phenyl)amino)-1-(6-methoxy-5-(trifluoromethoxy)-1H-indol-3-yl)ethanone], the EC50 in [1] stood at 0.089 nM; in the data set with DENV-1 strain TC974#666, 0.12 nM; with DENV-2 strain 16681, 0.062 nM; in the data set with DENV-3 strain H87, 1.3 nM; in the data set on DENV-4 strain H241, 11 nM. The same molecule yielded a CC50 in the data set with Vero cells of more than 2300 nM. In the data set “in vitro [3]”, this molecule showed a CC50 at 3 days of more than 2500 nM.
For the molecule `COc1cc(NC(C(=O)c2c[nH]c3ccc(C(F)(F)F)cc23)c2ccc(Cl)cc2OCCO)cc(S(C)(=O)=O)c1` (single isomer, unassigned) [Compound 9B, 2-(4-chloro-2-(2-hydroxyethoxy)phenyl)-2-((3-methoxy-5-(methylsulfonyl)phenyl)amino)-1-(5-(trifluoromethyl)-1H-indol-3-yl)ethanone], the EC50 is 0.061 nM in data set [1]; 0.083 nM in the data set with DENV-1 strain TC974#666; 0.054 nM with DENV-2 strain 16681; 1.2 nM in the data set on DENV-3 strain H87; 8.1 nM in the data set with DENV-4 strain H241. The CC50 in the data set with Vero cells was more than 2400 nM. The molecule further came in with a CC50 at 3 days in “in vitro [3]” of 2900 nM.
In the case of `COc1cc(NC(C(=O)c2c[nH]c3cc(OC)ccc23)c2ccc(Cl)cc2OCCO)cc(S(C)(=O)=O)c1` (single isomer, unassigned) [Compound 3B, 2-(4-chloro-2-(2-hydroxyethoxy)phenyl)-1-(6-methoxy-1H-indol-3-yl)-2-((3-methoxy-5-(methylsulfonyl)phenyl)amino)ethanone], the EC50 in data set [1] came to 56 nM. The CC50 in the data set with Vero cells turned out to be 13000 nM.

The values above are taken from patent US10765662B2, “Mono- or di-substituted indole derivatives as dengue viral replication inhibitors” (Janssen Pharmaceuticals, Inc., priority 2015, dated 2020).
